# Values quoted from earlier work, collected in patent US11975079B2, “Truncated Evans Blue modified fibroblast activation protein inhibitor, preparation method and application thereof” (YANTAI LANNACHENG BIOTECHNOLOGY CO., LTD., priority 2021, dated 2024).
structure (smiles),measurement,setting,value
N#C[C@@H]1CCCN1C(=O)CNC(=O)c1ccnc2ccc(OCCCN3CCN(C(=O)CN4CCN(CC(=O)O)CCN(CC(=O)O)CCN(CC(=O)O)CC4)CC3)cc12 [FAPI-02],decrease of retained dose at tumor site,24 hours later,about 75%
same,clearance in blood circulation,according to current reports,completely cleared in blood circulation within one hour
